Test results published in patent US20190308988A1, “OPIOID RECEPTOR ANTAGONIST PRODRUGS” (Nirsum Laboratories, Inc., priority 2017, published 2019).
Values after ≈ are worked out from the molar mass of the structure shown.

Assay: Solubility determination in oil (Table 10)
Conditions: for solubility at 24 h: 25 °C, Obs. Temp. 25 °C; for solubility at 24 h / solubility / solubility thermodynamic: thermodynamic from solid; for solubility / solubility thermodynamic: 40 °C; for solubility thermodynamic: water, Equilibrium solubility: Water
Procedure: A known amount of test substance (˜40 mg) was weighed into the vial, 100 μL of oil was added and heated to 60° C. and then system was slurried to reach equilibrium. […] Extra oil was added into the vial once compound precipitated out and then the system was re-equilibrated at 1000 rpm at room temperature (25° C.). Final concentration was determined by HPLC method as described below in Table 6a and 6b.

[1] = oil or lipid, Approximate Solubility in Excipient: Cottonseed oil, Heating Temp. 60 °C
[2] = oil or lipid, Approximate Solubility in Excipient: Sesame oil, Heating Temp. 60 °C
[3] = oil or lipid, Approximate Solubility in Excipient: Cottonseed oil, Heating Temp. 40 °C, Obs. Temp. 40 °C
[4] = oil or lipid, Approximate Solubility in Excipient: Sesame oil, Heating Temp. 40 °C, Obs. Temp. 40 °C
[5] = organic solvent or mixture, Approximate Solubility in Excipient: Ethanol, Heating Temp. 40 °C, Obs. Temp. 40 °C
[6] = Heating Temp. 40 °C, Obs. Temp. 40 °C
[7] = Heating Temp. 60 °C, Obs. Temp. 40 °C
[8] = oil or lipid, Approximate Solubility in Excipient: Castor oil, Heating Temp. 40 °C, Obs. Temp. 40 °C
[9] = oil or lipid, Approximate Solubility in Excipient: Cottonseed oil, Heating Temp. 60 °C, Obs. Temp. 40 °C
[10] = oil or lipid, Approximate Solubility in Excipient: Sesame oil, Heating Temp. 60 °C, Obs. Temp. 40 °C

| SMILES | solubility at 24 h [1] [mg/mL] | solubility at 24 h [2] [mg/mL] | solubility [3] [mg/mL] | solubility [4] [mg/mL] | solubility [5] [mg/mL] | solubility thermodynamic [6] [mg/mL] | also measured |
| --- | --- | --- | --- | --- | --- | --- | --- |
| C=C1CC[C@@]2(O)C3Cc4ccc(OC(=O)CCCCCCCCCCC/C=C\CCCCCCCC)c5c4[C@@]2(CCN3CC2CC2)[C@H]1O5 [Compound 13, (4aS,7aS,12bS)-3-(cyclopropylmethyl)-4a-hydroxy-7-methylene-2,3,4,4a,5,6,7,7a-octahydro-1H-4,12-methanobenzofuro[3,2-e]isoquinolin-9-yl (Z)-docos-13-enoate] | < 50 | 91 to 121 (≈ 138 to 183 mM) | > 381 | > 406 | > 214 | 0.002 (≈ 0.00303 mM) |  |
| C=C1CC[C@@]2(O)C3Cc4ccc(OC(=O)OCCCCCCCCCC)c5c4[C@@]2(CCN3CC2CC2)[C@H]1O5 [Compound 18, (4aS,7aS,12bS)-3-(cyclopropylmethyl)-4a-hydroxy-7-methylene-2,3,4,4a,5,6,7,7a-octahydro-1H-4,12-methanobenzofuro[3,2-e]isoquinolin-9-yl decyl carbonate] | > 400 | > 402 | > 403 | > 403 | > 209 | < 0.0002 |  |
| C=C1CC[C@@]2(O)C3Cc4ccc(OC(=O)OCCCCCCCCCCCCCCCCCCCC)c5c4[C@@]2(CCN3CC2CC2)[C@H]1O5 [Compound 28, (4aS,7aS,12bS)-3-(cyclopropylmethyl)-4a-hydroxy-7-methylene-2,3,4,4a,5,6,7,7a-octahydro-1H-4,12-methanobenzofuro[3,2-e]isoquinolin-9-yl icosyl carbonate] | < 50.2 | < 50.6 |  |  |  | < 0.001 |  |
| CCCCCCCCCCCCCCCC(=O)OCOc1ccc2c3c1O[C@H]1C(=O)CC[C@@]4(O)C(C2)N(CC2CC2)CC[C@]314 [Compound 49, (((4aS,7aR,12bS)-3-(cyclopropylmethyl)-4a-hydroxy-7-oxo-2,3,4,4a,5,6,7,7a-octahydro-1H-4,12-methanobenzofuro[3,2-e]isoquinolin-9-yl)oxy)methyl hexadecanoate] | < 50 | < 51 |  |  |  | 0.028 (≈ 0.0459 mM) |  |
| C=C1CC[C@@]2(O)[C@H]3Cc4ccc(O)c5c4[C@@]2(CCN3CC2CC2)[C@H]1O5 [61 (Nalmefene)] |  |  |  |  |  |  | Approximate Solubility in Excipient: Cottonseed oil [7]: <25.0 mg/mL; Approximate Solubility in Excipient: Ethanol [7]: 102 to 137 mg/mL; Approximate Solubility in Excipient: Sesame oil [7]: <25.5 mg/mL; Equilibrium solubility: Water [7]: 0.025 mg/mL |
| C=C1CC[C@@]2(O)C3Cc4ccc(OC(=O)CCC5CCCC5)c5c4[C@@]2(CCN3CC2CC2)[C@H]1O5 [Compound 39, (4aS,7aS,12bS)-3-(cyclopropylmethyl)-4a-hydroxy-7-methylene-2,3,4,4a,5,6,7,7a-octahydro-1H-4,12-methanobenzofuro[3,2-e]isoquinolin-9-yl 3-cyclopentylpropanoate] | 104 to 139 (≈ 224 to 300 mM) | 106 to 141 (≈ 229 to 304 mM) | 225 to 402 (≈ 485 to 868 mM) | > 400 | 150 to 200 (≈ 324 to 431 mM) | 0.018 (≈ 0.0388 mM) | solubility [8]: > 218 mg/mL |
| C=C1CC[C@@]2(O)C3Cc4ccc(OC(=O)CCCCCCCCCCCCCCCCC)c5c4[C@@]2(CCN3CC2CC2)[C@H]1O5 [Compound 12, (4aS,7aS,12bS)-3-(cyclopropylmethyl)-4a-hydroxy-7-methylene-2,3,4,4a,5,6,7,7a-octahydro-1H-4,12-methanobenzofuro[3,2-e]isoquinolin-9-yl stearate] | < 51 | < 50 | 100 to 120 (≈ 165 to 198 mM) | 70 to 95 (≈ 116 to 157 mM) | 65 to 75 (≈ 107 to 124 mM) | 0.043 (≈ 0.071 mM) | solubility [9]: > 398 mg/mL; solubility [10]: > 411 mg/mL |
| CCCCCCCCCCCCCCCCOC(=O)OCOc1ccc2c3c1O[C@H]1C(=O)CC[C@@]4(O)C(C2)N(CC2CC2)CC[C@]314 [Compound 47, (((4aS,7aR,12bS)-3-(cyclopropylmethyl)-4a-hydroxy-7-oxo-2,3,4,4a,5,6,7,7a-octahydro-1H-4,12-methanobenzofuro[3,2-e]isoquinolin-9-yl)oxy)methyl hexadecyl carbonate] | > 406 | > 405 |  |  |  | < 0.001 |  |
| CCCCCCCC/C=C/CCCCCCCC(=O)OCOc1ccc2c3c1O[C@H]1C(=O)CC[C@@]4(O)C(C2)N(CC2CC2)CC[C@]314 [Compound 26, (((4aS,7aR,12bS)-3-(cyclopropylmethyl)-4a-hydroxy-7-oxo-2,3,4,4a,5,6,7,7a-octahydro-1H-4,12-methanobenzofuro[3,2-e]isoquinolin-9-yl)oxy)methyl (E)-octadec-9-enoate] | 204 to 239 (≈ 321 to 376 mM) | < 354 |  |  |  | < 0.001 |  |
| C=C1CC[C@@]2(O)C3Cc4ccc(OC(=O)CCCCCCC/C=C\CCCCCCCC)c5c4[C@@]2(CCN3CC2CC2)[C@H]1O5 [Compound 36, (4aS,7aS,12bS)-3-(cyclopropylmethyl)-4a-hydroxy-7-methylene-2,3,4,4a,5,6,7,7a-octahydro-1H-4,12-methanobenzofuro[3,2-e]isoquinolin-9-yl oleate] | > 407 | > 408 | > 419 | > 412 | 20 to 30 (≈ 33.1 to 49.7 mM) | 0.005 (≈ 0.00828 mM) | solubility [8]: > 217 mg/mL |
| O=C(CCC1CCCC1)Oc1ccc2c3c1O[C@H]1C(=O)CC[C@@]4(O)C(C2)N(CC2CC2)CC[C@]314 [Compound 43, (4aS,7aR,12bS)-3-(cyclopropylmethyl)-4a-hydroxy-7-oxo-2,3,4,4a,5,6,7,7a-octahydro-1H-4,12-methanobenzofuro[3,2-e]isoquinolin-9-yl 3-cyclopentylpropanoate] |  |  | < 50 | < 50 | > 257 | 0.05 (≈ 0.107 mM) | solubility [9]: 140 to 210 mg/mL (≈ 301 to 451 mM); solubility [10]: 133 to 199 mg/mL (≈ 286 to 427 mM); Equilibrium solubility: Water [6]: 0.048 mg/mL |
| CCCCCCCCCCCCCCOC(=O)OCOc1ccc2c3c1O[C@H]1C(=O)CC[C@@]4(O)C(C2)N(CC2CC2)CC[C@]314 [Compound 27, (((4aS,7aR,12bS)-3-(cyclopropylmethyl)-4a-hydroxy-7-oxo-2,3,4,4a,5,6,7,7a-octahydro-1H-4,12-methanobenzofuro[3,2-e]isoquinolin-9-yl)oxy)methyl tetradecyl carbonate] | > 395 | > 399 |  |  |  | < 0.001 |  |
| C=C1CC[C@@]2(O)C3Cc4ccc(OC(=O)CCCCCCC/C=C\C/C=C\C/C=C\CC)c5c4[C@@]2(CCN3CC2CC2)[C@H]1O5 [Compound 20, (4aS,7aS,12bS)-3-(cyclopropylmethyl)-4a-hydroxy-7-methylene-2,3,4,4a,5,6,7,7a-octahydro-1H-4,12-methanobenzofuro[3,2-e]isoquinolin-9-yl (9Z,12Z,15Z)-octadeca-9,12,15-trienoate] | 68 to 82 (≈ 113 to 137 mM) | 80 to 100 (≈ 133 to 167 mM) | > 414 | > 406 | 157 to 197 (≈ 262 to 328 mM) | < 0.0002 |  |
| C=C1CC[C@@]2(O)C3Cc4ccc(OC(=O)OCCCCCCCC)c5c4[C@@]2(CCN3CC2CC2)[C@H]1O5 [Compound 17, (4aS,7aS,12bS)-3-(cyclopropylmethyl)-4a-hydroxy-7-methylene-2,3,4,4a,5,6,7,7a-octahydro-1H-4,12-methanobenzofuro[3,2-e]isoquinolin-9-yl octyl carbonate] | > 408 | > 487 | > 416 | > 416 | > 209 | 0.0008 (≈ 0.00161 mM) |  |
| CCCCCCCCCCCCCCCCCCCCCC(=O)Oc1ccc2c3c1O[C@H]1C(=O)CC[C@@]4(O)C(C2)N(CC2CC2)CC[C@]314 [Compound 51, (4aS,7aR,12bS)-3-(cyclopropylmethyl)-4a-hydroxy-7-oxo-2,3,4,4a,5,6,7,7a-octahydro-1H-4,12-methanobenzofuro[3,2-e]isoquinolin-9-yl docosanoate] | < 50 | < 46 |  |  |  | < 0.001 |  |
| CCCCCCCCCCCCCC(=O)Oc1ccc2c3c1O[C@H]1C(=O)CC[C@@]4(O)C(C2)N(CC2CC2)CC[C@]314 [Compound 57, (4aS,7aR,12bS)-3-(cyclopropylmethyl)-4a-hydroxy-7-oxo-2,3,4,4a,5,6,7,7a-octahydro-1H-4,12-methanobenzofuro[3,2-e]isoquinolin-9-yl tetradecanoate] | > 424 | > 417 |  |  |  | < 0.001 |  |
| C=C1CC[C@@]2(O)C3Cc4ccc(OC(=O)CC(C)(C)C)c5c4[C@@]2(CCN3CC2CC2)[C@H]1O5 [Compound 38, (4aS,7aS,12bS)-3-(cyclopropylmethyl)-4a-hydroxy-7-methylene-2,3,4,4a,5,6,7,7a-octahydro-1H-4,12-methanobenzofuro[3,2-e]isoquinolin-9-yl 3,3-dimethylbutanoate] |  |  | > 407 | 230 to 411 (≈ 526 to 939 mM) | 160 to 200 (≈ 366 to 457 mM) | 0.617 (≈ 1.41 mM) | solubility [8]: > 248 mg/mL; solubility thermodynamic [7]: 0.21 mg/mL (≈ 0.48 mM) |
